In patent US9884043B2, “RORgammaT inhibitors” (Merck Sharp & Dohme Corp., priority 2011, dated 2018) one finds IC50 data, which are given here for 30 molecules.

pIC50: −log10 of the molar value.

This experiment addresses T1, HIS-tagged RORγ-LBD (Homo sapiens, UniProt P51449).
T1 construct: HIS-tagged RORγ-LBD was recombinantly expressed in SF9 cells using a baculovirus expression system; made in house; host or cells: SF9 cells, baculovirus; crude lysate used
T1 sequence (P51449 269-508 limits assumed): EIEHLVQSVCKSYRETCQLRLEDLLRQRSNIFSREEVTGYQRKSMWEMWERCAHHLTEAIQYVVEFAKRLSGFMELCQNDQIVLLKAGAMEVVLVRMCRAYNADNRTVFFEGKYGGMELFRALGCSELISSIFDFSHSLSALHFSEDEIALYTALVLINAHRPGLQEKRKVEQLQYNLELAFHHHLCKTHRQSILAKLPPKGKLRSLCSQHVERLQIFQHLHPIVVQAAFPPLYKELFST
Nature of the experiment: TR-FRET assay (Protocol B), RORγ-LBD lysate / biotinylated SRC1-2 LXXLL peptide. The class given is biochemical. The conditions noted are these: unpurified RORγ-LBD lysate ~10 nM, SRC1-2 peptide 450 nM. The text has this: Activation of RORgammaT activity can be measured using e.g. biochemical TR-FRET assay. In such an assay, interaction of cofactor-derived peptides with human RORgammaT-Ligand Binding Domain (LBD) can be measured.
To identify novel antagonists of RORgammaT, an assay was developed which employs the interaction of RORgammaT with its co-activator peptide SRC1_2. […] The assay was run following three slightly different protocols, i.e. Protocol A, Protocol B, and Protocol C, which are described below.
TR-Fret Assay (Protocol B)
HIS-tagged RORγ-LBD was recombinantly expressed in SF9 cells using a baculovirus expression system. The protein was not purified. Cells were lysed and the lysate was used as a source for RORγ-LBD for the assay. A 1:80 dilution of RORγ-LBD lysate in assay buffer (25 mM HEPES pH 7.0, 100 mM NaCl, 0.01% Tween, 0.1% BSA) was prepared and 5 μL was added to each well (RORγ-LBD final concentration ˜10 nM). Control wells received lysate from SF9 cells not expressing RORγ-LBD.
Compounds to be tested were diluted to 100× final test concentration in DMSO and further diluted to 4× final test concentration using assay buffer to provide the test compound mixture. An aliquot (5 μL) of the test compound mixture was added to each well.
In general terms: In TR-FRET formats the signal depends on donor and acceptor labels being close together.
Consider `COc1cccc(F)c1C(=O)n1nc(-c2ccc(C(=O)O)cc2F)c2c(F)cccc21` [Example 24AA, 3-fluoro-4-(4-fluoro-1-(2-fluoro-6-methoxybenzoyl)-1H-indazol-3-yl)benzoic acid], for which the pIC50 – broadly, −log10 of the IC50, conventionally taken in molar units – was more than 7.30. In the case of `COc1cccc(F)c1C(=O)n1nc(-c2ccc(C(=O)O)cc2)c2c(F)cccc21` [Example 24AB, 4-(4-fluoro-1-(2-fluoro-6-methoxybenzoyl)-1H-indazol-3-yl)benzoic acid] it was more than 7.30.

`O=C(O)c1cccc(-c2nn(C(=O)c3c(Cl)cccc3C(F)(F)F)c3cccnc23)c1` [Example 24AC, 3-(1-(2-chloro-6-(trifluoromethyl)-benzoyl)-1H-pyrazolo[4,3-b]pyridin-3-yl) benzoic acid]: the pIC50 is 5.00 to 6.30. `O=C(O)Cc1ccc(-c2nn(C(=O)c3c(Cl)cccc3C(F)(F)F)c3cccnc23)cc1` [Example 24AD, 2-(4-(1-(2-chloro-6-(trifluoromethyl)-benzoyl)-1H-pyrazolo[4,3-b]pyridin-3-yl)phenyl)acetic acid] gave a negative-log IC50 (pIC50) of 5.00 to 6.30. For `O=C(c1c(Cl)cccc1C(F)(F)F)n1nc(-c2ccc(C(O)(C(F)(F)F)C(F)(F)F)cc2)c2ncccc21` [Example 24AE, (2-chloro-6-(trifluoromethyl)-phenyl)(3-(4-(1,1,1,3,3,3-hexafluoro-2-hydroxypropan-2-yl)phenyl)-1H-pyrazolo[4,3-b]pyridin-1-yl)methanone], the pIC50 was 5.00 to 6.30. In the case of `Cc1cc(C(=O)O)ccc1-c1nn(C(=O)c2c(Cl)cccc2C(F)(F)F)c2cccnc12` [Example 24AF, 4-(1-(2-chloro-6-(trifluoromethyl)-benzoyl)-1H-pyrazolo[4,3-b]pyridin-3-yl)-3-methylbenzoic acid], the pIC50 was more than 7.30. Consider `O=C(O)c1ccc(-c2nn(C(=O)c3c(Cl)cccc3C(F)(F)F)c3cccnc23)c(Cl)c1` [Example 24AG, 3-chloro-4-(1-(2-chloro-6-(trifluoromethyl)-benzoyl)-1H-pyrazolo[4,3-b]pyridin-3-yl)benzoic acid], for which the negative logarithm of the IC50 (pIC50) was more than 7.30. `O=C(O)c1ccc(-c2nn(C(=O)c3c(Cl)cccc3C(F)(F)F)c3cccnc23)cc1F` [Example 24AH, 4-(1-(2-chloro-6-(trifluoromethyl)-benzoyl)-1H-pyrazolo[4,3-b]pyridin-3-yl)-2-fluorobenzoic acid] gave a pIC50 of more than 7.30. As for `COc1cc(-c2nn(C(=O)c3c(Cl)cccc3C(F)(F)F)c3cccnc23)ccc1C(=O)O` [Example 24AI, 4-(1-(2-chloro-6-(trifluoromethyl)-benzoyl)-1H-pyrazolo[4,3-b]pyridin-3-yl)-2-methoxybenzoic acid], the pIC50 was 6.30 to 7.30. In the case of `O=C(O)c1cc(F)c(-c2nn(C(=O)c3c(Cl)cccc3C(F)(F)F)c3cccnc23)cc1Cl` [Example 24AJ, 2-chloro-4-(1-(2-chloro-6-(trifluoromethyl)-benzoyl)-1H-pyrazolo[4,3-b]pyridin-3-yl)-5-fluorobenzoic acid], the negative-log IC50 (pIC50) is 6.30 to 7.30.

For the molecule `O=C(O)c1cc(F)c(-c2nn(C(=O)c3c(Cl)cccc3C(F)(F)F)c3cccnc23)cc1F` [Example 24AK, 4-(1-(2-chloro-6-(trifluoromethyl)-benzoyl)-1H-pyrazolo[4,3-b]pyridin-3-yl)-2,5-difluorobenzoic acid], the negative-log IC50 (pIC50) was more than 7.30. In the case of `COc1cccc(F)c1C(=O)n1nc(-c2ccc(C(=O)O)cc2)c2ncccc21` [Example 24AM, 4-(1-(2-fluoro-6-methoxybenzoyl)-1H-pyrazolo[4,3-b]pyridin-3-yl)benzoic acid] it was more than 7.30. Consider `COc1cccc(F)c1C(=O)n1nc(-c2ccc(C(=O)O)cc2F)c2ncccc21` [Example 24AN, 3-fluoro-4-(1-(2-fluoro-6-methoxybenzoyl)-1H-pyrazolo[4,3-b]pyridin-3-yl)benzoic acid], for which the pIC50 was more than 7.30. In the case of `O=C(O)c1ccc(-c2nn(C(=O)c3c(Cl)cccc3C(F)(F)F)c3cccc(C(F)(F)F)c23)cc1` [Example 24AO, 4-(1-(2-chloro-6-(trifluoromethyl)-benzoyl)-4-(trifluoromethyl)-1H-indazol-3-yl)benzoic acid], the negative logarithm of the IC50 (pIC50) is more than 7.30. Turning to `CC(C)c1cc(-c2nn(C(=O)c3c(Cl)cccc3C(F)(F)F)c3ccccc23)ccc1C(=O)O` [Example 24AP, 4-(1-(2-chloro-6-(trifluoromethyl)-benzoyl)-1H-indazol-3-yl)-2-isopropylbenzoic acid], the negative-log IC50 (pIC50) was 5.00 to 6.30.

In turn, `O=C(O)c1ccc(-c2nn(C(=O)c3c(Cl)cccc3C(F)(F)F)c3ccccc23)cc1F` [Example 24AQ, sodium 4-(1-(2-chloro-6-(trifluoromethyl)-benzoyl)-1H-indazol-3-yl)-2-fluoro benzoate] showed a negative logarithm of the IC50 (pIC50) of more than 7.30. `O=C(O)c1ccc(-c2nn(C(=O)c3c(Cl)cccc3C(F)(F)F)c3ccccc23)c(F)c1` [Example 24AR, sodium 4-(1-(2-chloro-6-(trifluoromethyl)-benzoyl)-1H-indazol-3-yl)-3-fluoro benzoate] gave a negative logarithm of the IC50 (pIC50) of more than 7.30. For `COc1cccc(F)c1C(=O)n1nc(-c2ccc(C(=O)O)cc2F)c2ccccc21` [Example 24AT, 3-fluoro-4-(1-(2-fluoro-6-methoxybenzoyl)-1H-indazol-3-yl)benzoic acid], the pIC50 was more than 7.30. In the case of `O=C(O)c1ccc(-c2nn(C(=O)c3c(Cl)cccc3C(F)(F)F)c3cc(Br)cc(F)c23)cc1` [Example 24AX, 4-(6-bromo-1-(2-chloro-6-(trifluoromethyl)-benzoyl)-4-fluoro-1H-indazol-3-yl) benzoic acid] it was more than 7.30. Molecule `COc1cc(F)c2c(-c3ccc(C(=O)O)cc3)nn(C(=O)c3c(Cl)cccc3C(F)(F)F)c2c1` [Example 24AZ, 4-(1-(2-chloro-6-(trifluoromethyl)-benzoyl)-4-fluoro-6-methoxy-1H-indazol-3-yl) benzoic acid] gave a pIC50 of 6.30 to 7.30. In turn, `O=C(O)c1ccc(-c2nn(C(=O)c3c(Cl)cccc3C(F)(F)F)c3cc(O)ccc23)cc1` [Example 24BA, 4-(1-(2-chloro-6-(trifluoromethyl)-benzoyl)-6-hydroxy-1H-indazol-3-yl)benzoic acid] had a pIC50 of more than 7.30. In turn, `O=C(O)c1ccc(-c2nn(C(=O)c3c(Cl)cccc3C(F)(F)F)c3cc(O)ccc23)c(F)c1` [Example 24BB, 4-(1-(2-chloro-6-(trifluoromethyl)-benzoyl)-6-hydroxy-1H-indazol-3-yl)-3-fluorobenzoic acid] had a pIC50 of more than 7.30.

In turn, `O=C(O)c1ccc(-c2nn(C(=O)c3c(Cl)cccc3C(F)(F)F)c3cc(O)cc(F)c23)cc1` [Example 24BC, 4-(1-(2-chloro-6-(trifluoromethyl)-benzoyl)-4-fluoro-6-hydroxy-1H-indazol-3-yl)benzoic acid] showed a pIC50 of 5.00 to 6.30. Molecule `O=C(O)c1ccc(-c2nn(C(=O)c3c(Cl)cccc3C(F)(F)F)c3cc(O)cc(F)c23)c(F)c1` [Example 24BD, 4-(1-(2-chloro-6-(trifluoromethyl)-benzoyl)-4-fluoro-6-hydroxy-1H-indazol-3-yl)-3-fluorobenzoic acid] showed a pIC50 of 5.00 to 6.30. `O=C(O)c1ccc(-c2nn(C(=O)c3c(Cl)cccc3C(F)(F)F)c3cc(CO)ccc23)cc1` [Example 24BE, 4-(1-(2-chloro-6-(trifluoromethyl)-benzoyl)-6-(hydroxymethyl)-1H-indazol-3-yl)benzoic acid] had a pIC50 of more than 7.30.

In the case of `O=C(O)c1ccc(-c2nn(C(=O)c3c(Cl)cccc3C(F)(F)F)c3cc(CO)ccc23)c(F)c1` [Example 24BF, 4-(1-(2-chloro-6-(trifluoromethyl)-benzoyl)-6-(hydroxymethyl)-1H-indazol-3-yl)-3-fluorobenzoic acid], the pIC50 was more than 7.30. In the case of `O=C(O)c1ccc(-c2nn(C(=O)c3c(Cl)cccc3C(F)(F)F)c3cccnc23)c(F)c1` [Example 24C, sodium 4-(1-(2-chloro-6-(trifluoromethyl)benzoyl)-1H-pyrazolo[4,3-b]pyridin-3-yl)-3-fluorobenzoate] it was more than 7.30; in that of `O=C(c1c(Cl)cccc1C(F)(F)F)n1nc(-c2ccc(C(O)(C(F)(F)F)C(F)(F)F)cc2)c2c(F)cccc21` [Example 24D, (2-chloro-6-(tri-fluoromethyl)-phenyl)(4-fluoro-3-(4-(1,1,1,3,3,3-hexafluoro-2-hydroxypropan-2-yl)phenyl)-1H-indazol-1-yl)methanone], 5.00 to 6.30; in that of `O=C(O)c1cccc(-c2nn(C(=O)c3c(Cl)cccc3C(F)(F)F)c3cccc(F)c23)c1` [Example 24E, 3-(1-(2-chloro-6-(trifluoromethyl)-benzoyl)-4-fluoro-1H-indazol-3-yl)benzoic acid], 5.00 to 6.30. `O=C(O)Cc1cccc(-c2nn(C(=O)c3c(Cl)cccc3C(F)(F)F)c3cccc(F)c23)c1` [Example 24F, 2-(3-(1-(2-chloro-6-(trifluoromethyl)-benzoyl)-4-fluoro-1H-indazol-3-yl)phenyl)acetic acid] had a pIC50 of 5.00 to 6.30.
